Results from patent US8241647B2, “Amphiphilic molecule, molecular assembly comprising the amphiphilic molecule, and use of the molecular assembly” (Waseda University, priority 2007, dated 2012).

Legend:
[1] = Preparation of liposome from mixed lipid (dispersion in water, high-pressure extrusion); type: physicochemical; settings: mixed lipid compound/cholesterol/PEG-Glu2C18 dispersed in water, high-pressure extrusion 0.22 μm
Procedure: (§1) Compound 7, 8 or 9 (0.177 mmol), cholesterol (0.179 mmol) and PEG-Glu2C18 (1.0 μmol) were dissolved in benzene, and the mixture was freeze-dried to prepare a mixed lipid. 20 mg of this mixed lipid was dispersed in 1 mL of water for injection, and the resultant mixture was stirred for 6 hours. After that, liposome having a particle size of about 240 nm was prepared by means of the high-pressure extrusion method (final pore diameter: 0.22 μm).
as §1, with “Compound 3, 12” for “Compound 7, 8”, “or 13” for “or 9”, “(1.0 mmol)” for “(1.0 μmol)”

[2] = Measurement of zeta potential of liposomes; type: physicochemical; settings: liposome compound/cholesterol/PEG-Glu2C18 (5/5/0.03 molar ratio); acetate buffers 20 mM; 37°C
Procedure: Portions of the prepared liposome ([lipid]=10 mg/ml) were respectively added to acetate buffers with different pHs (7.4, 7, 6, 5, 4) (30 mM) to the final concentration of [lipid]=1 mg/mL, and then the zeta potential at 37° C. was measured. Zetasizer 4 manufactured by Malvern was used. A capillary cell was filled with a liposome-dispersed liquid obtained by dilution to the measurement concentration, and the measurement was performed at 37° C. 3 times.
Portions of the prepared liposome ([lipid]=10 mg/ml) were respectively added to acetate buffers with different pHs (7.4, 7, 6, 5, 4) (20 mM) to the final concentration of [lipid]=1 mg/mL, and then the zeta potential at 37° C. was measured.
Portions of each of the prepared liposomes ([lipid]=10 mg/ml) were respectively added to acetate buffers with different pHs (7.4, 7, 6, 5, 4) (20 mM) to the final concentration of [lipid]=1 mg/mL, and then the zeta potential at 37° C. was measured.

[3] = Degree of fusion with anionic liposome (Example 9); settings: liposome compound/cholesterol/PEG-Glu2C18, 37°C, 30 minutes
Procedure: In a manner similar to that in Example 2, the degree of fusion of the pH-responsive liposome with respect to the anionic liposome (DOPC/DPPG, 5/1 (molar ratio)) was calculated. The measurement method was as follows. 50 μL of 1 mM anionic liposome and 50 μL of 9 mM (converted to the mixed lipid basis) pH-responsive liposome were added to 1.9 mL of each of acetate buffers with different pHs and allowed to stand at 37° C. 30 minutes later, […] of the mixture was dividedly poured and added to 1.9 mL of HEPES buffer (pH 7.4). The resultant mixture was transferred to a quartz cell and subjected to fluorescence measurement (λex: 460 nm, 530 nm). The measurement was carried out using RF-5300PC manufactured by Shimadzu.

With `CCCCCCCCCCCCCCCCOC(=O)CCC(NC(=O)C(CCCCNC(=O)C(N)CC(=O)O)NC(=O)C(N)CCC(=O)O)C(=O)OCCCCCCCCCCCCCCCC` (stereo not shown) [Compound 7] the “liposome formation with the compound as main component” value (“liposome formation with the compound” below) [1] was “liposome was formed” and the “pH at which the zeta potential changed from negative to positive” value (from here on “pH at which the zeta potential changed”) [2] was “about 5.5”.

With `CCCCCCCCCCCCCCCCOC(=O)CCC(NC(=O)C(CCCCNC(=O)C(N)CCC(=O)O)NC(=O)C(N)CC(=O)O)C(=O)OCCCCCCCCCCCCCCCC` (stereo not shown) [Compound 8] the “liposome formation with the compound” value [1] was “liposome was formed” and the “pH at which the zeta potential changed” value [2] was “about 4.8”.

In the case of `CCCCCCCCCCCCCCCCOC(=O)CCC(NC(=O)C(CCCCNC(=O)C(N)CC(=O)O)NC(=O)C(N)CC(=O)O)C(=O)OCCCCCCCCCCCCCCCC` (stereo not shown) [Compound 9], the “liposome formation with the compound” value [1] is reported as “aggregated”.

With `CCCCCCCCCCCCCCOC(=O)CCC(NC(=O)C(CCCCNC(=O)C(N)CCC(=O)O)NC(=O)C(N)CCC(=O)O)C(=O)OCCCCCCCCCCCCCC` (stereo not shown) [Compound 12] the “liposome formation with the compound” value [1] was “liposome was formed”, the degree of fusion ([3]; pH 6.5 (maximum)) was “over 65%” and the degree of fusion ([3]; pH 7.4) was “about 45%”. For the same compound, the “pH at which the zeta potential changed” value [2] was “about 7.0”.

For `CCCCCCCCCCCCCCCCCCOC(=O)CCC(NC(=O)C(CCCCNC(=O)C(N)CCC(=O)O)NC(=O)C(N)CCC(=O)O)C(=O)OCCCCCCCCCCCCCCCCCC` (stereo not shown) [Compound 13], the “liposome formation with the compound” value [1] was “poor dispersibility”.
